Experimental data published in article PMC10538207, “Bioactive-Guided Phytochemical Investigations, In Vitro and In Silico Alpha-Glucosidase Inhibition of Two Vietnamese Medicinal Plants Dicranopteris linearis and Psychotria adenophylla” (Pharmaceuticals, 2023).
Where two headings read alike, the source gives them in different places.

Tests used:
alpha-glucosidase = biological target: T1, alpha-glucosidase (Saccharomyces cerevisiae, UniProt P53341); assay: biochemical; conditions: for Binding Affinity Exp: ΔGexp calculated from IC50, T=300 K
T1 construct: purchased Sigma-Aldrich Co. (Saint Louis, MO, USA)
T1 sequence (P53341 whole entry): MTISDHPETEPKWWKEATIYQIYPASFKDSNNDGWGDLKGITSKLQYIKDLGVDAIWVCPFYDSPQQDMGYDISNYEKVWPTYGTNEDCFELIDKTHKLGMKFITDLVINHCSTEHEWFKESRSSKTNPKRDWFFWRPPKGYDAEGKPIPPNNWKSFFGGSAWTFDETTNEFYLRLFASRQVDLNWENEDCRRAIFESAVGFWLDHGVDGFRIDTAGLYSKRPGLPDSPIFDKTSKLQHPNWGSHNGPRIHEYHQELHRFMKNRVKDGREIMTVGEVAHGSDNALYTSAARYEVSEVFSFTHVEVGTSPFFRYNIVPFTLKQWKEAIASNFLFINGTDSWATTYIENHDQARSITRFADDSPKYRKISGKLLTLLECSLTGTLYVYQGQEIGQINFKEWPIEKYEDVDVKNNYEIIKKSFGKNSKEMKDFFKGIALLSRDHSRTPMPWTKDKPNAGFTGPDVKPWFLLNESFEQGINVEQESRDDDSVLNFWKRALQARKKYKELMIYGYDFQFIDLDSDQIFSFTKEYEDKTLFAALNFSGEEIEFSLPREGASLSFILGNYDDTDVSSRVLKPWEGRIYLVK
Description: The conditions followed that of our previous report with small modifications.

HepG2 cells = conditions: read-out: hepatoprotective activity EC50; cited from earlier work
[1] = isolated compounds, read-out: Alpha-glucosidase inhibition IC50 (isolated compounds)

IC50 (alpha-glucosidase; [1]) | Structure (SMILES) | Binding Affinity Exp (alpha-glucosidase) | IC50 (alpha-glucosidase) | EC50 (HepG2 cells)
> 300 µM | CC[C@H](CC[C@@H](C)[C@H]1CC[C@H]2[C@@H]3CC=C4C[C@@H](O)CC[C@]4(C)[C@H]3CC[C@]12C)C(C)C [DL1, β-sitosterol] |  |  | 
> 300 µM | CC[C@H](CC[C@@H](C)[C@H]1CC[C@H]2[C@@H]3CC=C4C[C@@H](O[C@@H]5O[C@H](CO)[C@@H](O)[C@H](O)[C@H]5O)CC[C@]4(C)[C@H]3CC[C@]12C)C(C)C [DL2, daucosterol] |  |  | 
> 300 µM | CC(C)(C)c1ccc(C(=O)c2ccc(C(C)(C)C)cc2C(C)(C)C)c(C(C)(C)C)c1 [DL4, 2,2′,4,4′-tetra-tert-butylbenzophenone] |  |  | 
 | O=c1c(-c2ccc(O)cc2)coc2cc(O)ccc12 [DL6, daidzein] |  | 66.9 ± 1.7 µM | 
> 300 µM | COc1ccc(-c2oc3cc(O)c(OC)c(O)c3c(=O)c2OC)cc1OC [DL9, bonanzin] |  |  | 
67.1 ± 1.2 µM | O=c1cc(-c2ccc(O)c(O)c2)oc2cc(O)cc(O)c12 [DL10, luteolin] |  |  | 
 | O=c1c(O[C@@H]2O[C@H](CO)[C@@H](O)[C@H](O)[C@H]2O)c(-c2ccc(O)c(O)c2)oc2cc(O)cc(O)c12 [DL12, isoquercetin] |  | 99.8 ± 1.2 µM | 
> 300 µM | COc1c(-c2ccc(O)c(O)c2)oc2cc(O)cc(O)c2c1=O [PA1, 3-O-methylquercetin] |  |  | 
250 ± 11.4 µM | COc1cc(/C=C/C=O)ccc1O [PA4, coniferyl aldehyde] |  |  | 
 | Cc1cc(O)c2c(c1)C(=O)c1cccc(O)c1C2=O [PA5, chrysophanol] | -5.5 kcal/mol | 98.2 ± 2.2 µM | 
> 300 µM | O=Cc1ccc(CO)o1 [PA7, 5-hydroxymethylfurfural] |  |  | 

Structure (SMILES) | IC50 (alpha-glucosidase; [1]) | Binding Affinity Exp (alpha-glucosidase) | IC50 (alpha-glucosidase) | EC50 (HepG2 cells)
CC[C@H](CC[C@@H](C)[C@H]1CC[C@H]2[C@@H]3CC(O)C4=CC(=O)CC[C@]4(C)[C@H]3CC[C@]12C)C(C)C (stereo partly drawn) [DL3, 6-hydroxystigmast-4-en-3-one] | 177 ± 3.6 µM | -5.1 kcal/mol |  | 
CC1(C)C[C@H](O)C[C@@](C)(O)/C(O)=C\C1=O [DL5, chakyunglupulin B] | 82.2 ± 2.2 µM | -5.6 kcal/mol |  | 
COc1cc(-c2oc3cc(O)c(OC)c(O)c3c(=O)c2OC)ccc1O [DL8, jaceidin] | 282 ± 9.2 µM | -4.9 kcal/mol |  | 
COc1cc(/C=C/C(=O)NC(=O)c2ccc(O)c(OC)c2)ccc1O [PA6, tribulusimide D] | 76.2 ± 2.9 µM | -5.7 kcal/mol |  | 13.5 µM
